From US8324212B2, “Compounds for the treatment of hepatitis C” (Bristol-Myers Squibb Company, priority 2010, dated 2012)

Legend:
[1] = target: T1, HCV NS5B RdRp genotype 1b (Hepatitis C virus genotype 1b, UniProt Q9WMX2); test: HCV NS5B RdRp enzyme assay; type: biochemical; conditions: standard or modified assay not stated
T1 construct: The cDNA encoding the NS5B protein of HCV, genotype 1b; made in house; host or cells: E. coli BL21 (DE3)
Procedure: HCV NS5B RdRp cloning, expression, and purification. The cDNA encoding the NS5B protein of HCV, genotype 1b, was cloned into the pET21a expression vector. The protein was expressed with an 18 amino acid C-terminal truncation to enhance the solubility. The E. coli competent cell line BL21 (DE3) was used for expression of the protein. Cultures were grown at 37° C. for ˜4 hours until the cultures reached an optical density of 2.0 at 600 nm. The cultures were cooled to 20° C. and induced with 1 mM IPTG. Fresh ampicillin was added to a final concentration of 50 μg/ml and the cells were grown overnight at 20° C.
Cell pellets (3L) were lysed for purification to yield 15-24 mgs of purified NS5B. The lysis buffer consisted of 20 mM Tris-HCl, pH 7.4, 500 mM NaCl, 0.5% triton X-100, 1 mM DTT, 1 mM EDTA, 20% glycerol, 0.5 mg/ml lysozyme, 10 mM MgCl2, 15 ug/ml deoxyribonuclease I, and Complete TM protease inhibitor tablets (Roche). After addition of the lysis buffer, frozen cell pellets were resuspended using a tissue homogenizer. To reduce the viscosity of the sample, aliquots of the lysate were sonicated on ice using a microtip attached to a Branson sonicator. The sonicated lysate was centrifuged at 100,000×g for 1 hr at 4° C. and filtered through a 0.2 μm filter unit (Corning).
The protein was purified using three sequential chromatography steps: Heparin sepharose CL-6B, polyU sepharose 4B, and Hitrap SP sepharose (Pharmacia). The chromatography buffers were identical to the lysis buffer but contained no lysozyme, deoxyribonuclease I, MgCl2 or protease inhibitor and the NaCl concentration of the buffer was adjusted according to the requirements for charging the protein onto the column. Each column was eluted with a NaCl gradient which varied in length from 5-50 column volumes depending on the column type. After the final chromatography step, the resulting purity of the enzyme is >90% based on SDS-PAGE analysis. The enzyme was aliquoted and stored at −80° C.
Standard HCV NS5B RdRp enzyme assay. HCV RdRp genotype 1b assays were run in a final volume of 60 μl in 96 well plates (Costar 3912). The assay buffer is composed of 20 mM Hepes, pH 7.5, 2.5 mM KCl, 2.5 mM MgCl2, 1 mM DTT, 1.6 U RNAse inhibitor (Promega N2515), 0.1 mg/ml BSA (Promega R3961), and 2% glycerol. All compounds were serially diluted (3-fold) in DMSO and diluted further in water such that the final concentration of DMSO in the assay was 2%. HCV RdRp genotype 1b enzyme was used at a final concentration of 28 nM. A polyA template was used at 6 nM, and a biotinylated oligo-dT12 primer was used at 180 nM final concentration. […] Plates were read on a Packard Top Count NXT after >1 hr incubation at room temperature. […]
IC50 values for compounds were determined using seven different [I]. […]

HCV replicon = HCV replicon assay (FRET / luciferase reporter); type: cell-based; conditions: Hepatitis C virus; HCV replicon cells (HUH-7)
From the text: FRET Assay Preparation. To perform the HCV FRET screening assay, 96-well cell culture plates were used. The FRET peptide (Anaspec, Inc.) (Taliani et al., Anal. Biochem. 1996, 240, 60-67) contains a fluorescence donor, EDANS, near one end of the peptide and an acceptor, DABCYL, near the other end. The fluorescence of the peptide is quenched by […] resonance energy transfer (RET) between the donor and the acceptor, but as the NS3 protease cleaves the peptide the products are released from RET quenching and the fluorescence of the donor becomes apparent. The assay reagent was made as follows: 5× cell Luciferase cell culture lysis reagent from Promega (#E153A) diluted to 1× with dH2O, NaCl added to 150 mM final, the FRET peptide diluted to 20 μM final from a 2 mM stock. […]
Assays. […] After reading in a Cytoflour 4000 instrument (PE Biosystems), plates were rinsed with PBS and then used for FRET assay by the addition of 30 ul of the FRET peptide assay reagent described above (FRET Assay Preparation) per well. The plate was then placed into the Cytoflour 4000 instrument which had been set to 340 excite/490 emission, automatic mode for 20 cycles and the plate read in a kinetic mode. Typically, the signal to noise using an endpoint analysis after the reads was at least three-fold. Alternatively, after Alamar blue reading, plates were rinsed with PBS, 50 ul of DMEM (high glucose) without phenol red was added and plates were then used for luciferase assay using the Promega Dual-Glo Luciferase Assay System.
Compound analysis was determined by quantification of the relative HCV replicon inhibition and the relative cytotoxicity values. To calculate cytoxicity values, the average Alamar Blue fluorescence signals from the control wells were set as 100% non-toxic. […]

HCV = conditions: cited from earlier work

T1 sequence (Q9WMX2 2420-2992): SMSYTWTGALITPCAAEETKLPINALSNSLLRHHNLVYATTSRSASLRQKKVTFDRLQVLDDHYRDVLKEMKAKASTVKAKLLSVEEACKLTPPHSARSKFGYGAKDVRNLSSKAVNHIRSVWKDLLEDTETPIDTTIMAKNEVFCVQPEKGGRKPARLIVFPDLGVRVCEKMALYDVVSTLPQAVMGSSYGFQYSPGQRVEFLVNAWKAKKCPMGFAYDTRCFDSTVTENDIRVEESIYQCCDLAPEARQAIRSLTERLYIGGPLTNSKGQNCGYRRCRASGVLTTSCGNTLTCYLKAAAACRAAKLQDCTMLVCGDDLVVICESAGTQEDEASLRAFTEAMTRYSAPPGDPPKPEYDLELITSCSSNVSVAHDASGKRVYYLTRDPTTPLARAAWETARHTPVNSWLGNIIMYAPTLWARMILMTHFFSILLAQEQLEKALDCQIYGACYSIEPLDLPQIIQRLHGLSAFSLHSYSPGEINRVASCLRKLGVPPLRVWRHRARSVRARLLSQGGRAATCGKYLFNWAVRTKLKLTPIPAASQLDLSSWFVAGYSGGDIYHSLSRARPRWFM

| Structure (SMILES) | IC50 [1] [nM] | EC50 (HCV replicon) [nM] | toxicity during extended dosing (HCV; patients, extended dosing of the combination regimens) | HCV RNA levels in patients (HCV; single agent or combined with interferon and ribavirin) |
| --- | --- | --- | --- | --- |
| CNC(=O)c1c(-c2ccc(F)cc2)nn2ncc(-c3cc(C(=O)NC4(c5ccccc5)CC4)ccc3C)cc12 [Example 1, 2-(4-fluorophenyl)-N-methyl-5-(2-methyl-5-(1-phenylcyclopropylcarbamoyl)phenyl)pyrazolo[1,5-b]pyridazine-3-carboxamide] | < 17 | 5 | – | – |
| CNC(=O)c1c(-c2ccc(F)cc2)nn2nccc(-c3cc(C(=O)NC4(c5ccccc5)CC4)ccc3C)c12 [Example 2, 2-(4-fluorophenyl)-N-methyl-4-(2-methyl-5-(1-phenylcyclopropylcarbamoyl)phenyl)pyrazolo[1,5-b]pyridazine-3-carboxamide] | 3060 | – | – | – |
| CNC(=O)c1c(-c2ccc(F)cc2)nn2ncc(-c3cc(C(=O)NC4(c5ncccn5)CC4)c(OC)cc3C)cc12 [Example 4, 2-(4-fluorophenyl)-5-(4-methoxy-2-methyl-5-(1-(pyrimidin-2-yl)cyclopropylcarbamoyl)phenyl)-N-methylpyrazolo[1,5-b]pyridazine-3-carboxamide] | 14 | 12 | – | – |
| CNC(=O)c1c(-c2ccc(F)cc2)oc2cc(N(CCO)S(C)(=O)=O)c(C3CC3)cc12 [HCV-796] | – | – | hepatic toxicity observed | showed an ability to reduce HCV RNA levels in patients |
| CNC(=O)c1c(-c2ccc(F)cc2)nn2ncc(-c3cc(C(=O)NC4(c5ccccc5)CC4)c(OC)cc3C)cc12 [Example 3, 2-(4-fluorophenyl)-5-(4-methoxy-2-methyl-5-(1-phenylcyclopropylcarbamoyl)phenyl)-N-methylpyrazolo[1,5-b]pyridazine-3-carboxamide] | 11 | 2 | – | – |
